{"source": "paper doi:10.1101/2024.10.09.24315180v1", "about": "“Schizandrin A suppressed pancreatic cancer proliferation and cancer associated fibroblast activation via inhibiting the COX-2/ALOX5 shunting” (medrxiv, 2024)", "key": {"COX-2": {"biological_target": "T1, COX-2 (Homo sapiens, UniProt P35354)", "T1 construct": "gene PTGS2; immobilised on CM5 chip", "T1 sequence (P35354 18-604)": "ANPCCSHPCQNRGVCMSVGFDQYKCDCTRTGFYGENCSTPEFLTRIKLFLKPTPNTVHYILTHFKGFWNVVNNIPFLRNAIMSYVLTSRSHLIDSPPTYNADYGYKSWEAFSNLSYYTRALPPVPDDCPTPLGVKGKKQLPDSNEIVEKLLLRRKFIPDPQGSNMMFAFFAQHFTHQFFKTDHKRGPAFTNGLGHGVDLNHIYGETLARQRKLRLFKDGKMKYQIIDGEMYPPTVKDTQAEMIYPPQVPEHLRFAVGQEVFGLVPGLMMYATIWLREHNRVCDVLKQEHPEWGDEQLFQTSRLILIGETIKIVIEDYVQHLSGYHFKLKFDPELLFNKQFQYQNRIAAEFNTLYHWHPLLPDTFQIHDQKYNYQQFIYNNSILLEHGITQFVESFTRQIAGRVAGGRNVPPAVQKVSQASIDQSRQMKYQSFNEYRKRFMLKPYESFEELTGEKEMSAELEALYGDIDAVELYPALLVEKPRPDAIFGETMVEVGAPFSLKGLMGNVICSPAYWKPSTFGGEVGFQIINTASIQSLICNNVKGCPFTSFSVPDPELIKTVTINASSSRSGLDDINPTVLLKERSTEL", "test": "SPR, Biacore T200, CM5 chip, multi-cycle", "assay_type": "binding"}, "ALOX5": {"biological_target": "T2, ALOX5 (Homo sapiens, UniProt P09917)", "T2 construct": "immobilised on CM5 chip", "T2 sequence (P09917 1-674)": "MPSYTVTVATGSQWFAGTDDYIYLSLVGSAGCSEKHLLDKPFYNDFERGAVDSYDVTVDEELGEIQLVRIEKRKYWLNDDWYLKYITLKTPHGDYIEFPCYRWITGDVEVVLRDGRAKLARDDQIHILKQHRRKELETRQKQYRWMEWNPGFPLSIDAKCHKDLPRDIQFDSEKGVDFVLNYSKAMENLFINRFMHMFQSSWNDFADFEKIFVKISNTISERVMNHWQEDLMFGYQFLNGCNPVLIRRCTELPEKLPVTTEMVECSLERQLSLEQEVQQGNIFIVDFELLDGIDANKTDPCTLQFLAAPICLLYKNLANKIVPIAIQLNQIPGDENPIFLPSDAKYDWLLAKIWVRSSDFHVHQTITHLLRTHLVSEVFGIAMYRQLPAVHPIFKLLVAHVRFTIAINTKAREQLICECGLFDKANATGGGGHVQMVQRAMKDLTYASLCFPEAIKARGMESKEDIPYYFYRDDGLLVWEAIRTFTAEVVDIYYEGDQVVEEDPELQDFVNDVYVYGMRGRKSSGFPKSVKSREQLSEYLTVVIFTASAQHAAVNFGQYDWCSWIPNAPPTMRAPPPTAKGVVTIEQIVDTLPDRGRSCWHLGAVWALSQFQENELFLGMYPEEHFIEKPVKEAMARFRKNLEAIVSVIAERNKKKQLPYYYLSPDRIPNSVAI", "test": "SPR, Biacore T200, CM5 chip, multi-cycle", "assay_type": "binding"}}, "note": "pKd: −log10 of the molar value."}
{"smiles": "COc1cc2c(c(OC)c1OC)-c1c(cc(OC)c(OC)c1OC)C[C@H](C)[C@H](C)C2", "note": "[Schizandrin A]", "values": [{"measurement": "pKd", "setting": "COX-2", "value": 4.83}, {"measurement": "pKd", "setting": "ALOX5", "value": 4.66}]}
